26 compounds from patent publication US12780800B1, “Triazole-pyridinyl substituted azacyclohexyl acetic acid compounds as LPA receptor antagonists” (Viva Star Biosciences Limited, priority 2021, dated 2022) can be followed below.

Some results are limits rather than exact numbers.

T1 sequence (Q92633 whole entry, the tested form may be a part): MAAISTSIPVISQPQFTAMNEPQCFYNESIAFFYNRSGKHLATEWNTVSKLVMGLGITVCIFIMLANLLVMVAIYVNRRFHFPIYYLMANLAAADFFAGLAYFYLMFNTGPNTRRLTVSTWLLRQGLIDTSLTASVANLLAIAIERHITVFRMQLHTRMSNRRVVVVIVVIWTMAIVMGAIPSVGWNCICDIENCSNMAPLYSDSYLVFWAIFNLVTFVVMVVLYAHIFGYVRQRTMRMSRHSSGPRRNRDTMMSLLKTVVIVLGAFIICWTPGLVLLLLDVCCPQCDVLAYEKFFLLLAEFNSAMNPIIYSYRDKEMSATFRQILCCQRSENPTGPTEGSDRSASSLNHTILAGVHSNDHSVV

This assay has as its target T1, LPA1 (Homo sapiens, UniProt Q92633).
T1 construct: ProLink (PK) beta-galactosidase enzyme-fragment tag; host or cells: CHO-K1
The assay is described as follows: LPA1 calcium flux assay (LPA1 functional antagonist assay). Type of assay: cell-based. Conditions: PathHunter CHO-K1 EDG2 β-Arrestin cell line; calcium indicator dye; stimulated with EC80 concentration of LPA; FLIPR Tetra. The method in brief:
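The LPA1 antagonist readout was intracellular calcium flux, and IC50 values were calculated from it. Plates stood 30 min at RT after compound addition. Cells, grown overnight, had first taken up calcium dye over 45 min at 37 °C.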
(In general: Calcium flux is commonly read through the fluorescence of an indicator in the cells.)
As a reminder, the IC50 is the midpoint of a concentration-inhibition curve. Consider `Cc1nc(-c2nnn(C)c2Cn2ccn(CC3CC3)c2=O)ccc1N1C[C@@H](CC(=O)O)CC(F)(F)C1` [Example 72, (S)-2-(1-(6-(5-((3-(cyclopropylmethyl)-2-oxo-2,3-dihydro-1H-imidazol-1-yl)methyl)-1-methyl-1H-1,2,3-triazol-4-yl)-2-methylpyridin-3-yl)-5,5-difluoropiperidin-3-yl)acetic acid], for which the IC50 was over 5000 nM.
As for `CCC(C)n1ccn(Cc2c(-c3ccc(N4C[C@@H](CC(=O)O)CC(F)(F)C4)c(C)n3)nnn2C)c1=O` (stereo partly drawn) [Example 73, 2-((3S)-1-(6-(5-((3-(sec-butyl)-2-oxo-2,3-dihydro-1H-imidazol-1-yl)methyl)-1-methyl-1H-1,2,3-triazol-4-yl)-2-methylpyridin-3-yl)-5,5-difluoropiperidin-3-yl)acetic acid], the IC50 was over 5000 nM.
As for `CCc1nc(-c2nnn(C)c2COc2nccc(C3CCC3)n2)ccc1N1CCC[C@H](CC(=O)O)C1` [Example 74, (R)-2-(1-(6-(5-(((4-cyclobutylpyrimidin-2-yl)oxy)methyl)-1-methyl-11H-1,2,3-triazol-4-yl)-2-ethylpyridin-3-yl)piperidin-3-yl)acetic acid], the half-inhibitory concentration (IC50) was under 100 nM.
On to `Cc1nc(-c2nnn(C)c2COc2nccc(C3CC3)n2)ccc1N1C[C@@H](CC(=O)O)CC(F)(F)C1` [Example 75, (S)-2-(1-(6-(5-(((4-cyclopropylpyrimidin-2-yl)oxy)methyl)-1-methyl-1H-1,2,3-triazol-4-yl)-2-methylpyridin-3-yl)-5,5-difluoropiperidin-3-yl)acetic acid], for which the half-inhibitory concentration (IC50) is 500 to 5000 nM.
Consider `Cc1nc(-c2nnn(C)c2COc2nccc(C3CCC3)n2)ccc1N1C[C@@H](CC(=O)O)CC(F)(F)C1` [Example 76, (S)-2-(1-(6-(5-(((4-cyclobutylpyrimidin-2-yl)oxy)methyl)-1-methyl-1H-1,2,3-triazol-4-yl)-2-methylpyridin-3-yl)-5,5-difluoropiperidin-3-yl)acetic acid], for which the half-maximal inhibitory concentration (IC50) is under 100 nM.
In the case of `Cc1nc(-c2nnn(C)c2COc2nccc(C(C)C)n2)ccc1N1C[C@@H](CC(=O)O)CC(F)(F)C1` [Example 77, (S)-2-(5,5-difluoro-1-(6-(5-(((4-isopropylpyrimidin-2-yl)oxy)methyl)-1-methyl-1H-1,2,3-triazol-4-yl)-2-methylpyridin-3-yl)piperidin-3-yl)acetic acid] it was 100 to 500 nM; in that of `Cc1nc(-c2nnn(C)c2COc2cc(-n3cccn3)ncn2)ccc1N1C[C@@H](CC(=O)O)CC(F)(F)C1` [Example 78, (S)-2-(1-(6-(5-(((6-(1H-pyrazol-1-yl)pyrimidin-4-yl)oxy)methyl)-1-methyl-1H-1,2,3-triazol-4-yl)-2-methylpyridin-3-yl)-5,5-difluoropiperidin-3-yl)acetic acid], under 100 nM.
In the case of `CCc1nc(-c2nnn(C)c2COc2nccc(C3CCC3)n2)ccc1N1C[C@@H](CC(=O)O)CC(F)(F)C1` [Example 79, (S)-2-(1-(6-(5-(((4-cyclobutylpyrimidin-2-yl)oxy)methyl)-1-methyl-1H-1,2,3-triazol-4-yl)-2-ethylpyridin-3-yl)-5,5-difluoropiperidin-3-yl)acetic acid] it was under 100 nM.
In the case of `CCc1nc(-c2nnn(C)c2COc2cc(C3CCC3)ncn2)ccc1N1CCC[C@H](CC(=O)O)C1` [Example 80, (R)-2-(1-(6-(5-(((6-cyclobutylpyrimidin-4-yl)oxy)methyl)-1-methyl-1H-1,2,3-triazol-4-yl)-2-ethylpyridin-3-yl)piperidin-3-yl)acetic acid] it was under 100 nM; in that of `CCc1nc(-c2nnn(C)c2COc2nccc(C3CCC3)n2)ccc1N1CCC[C@@H](CC(=O)O)C1` [Example 81, (S)-2-(1-(6-(5-(((4-cyclobutylpyrimidin-2-yl)oxy)methyl)-1-methyl-1H-1,2,3-triazol-4-yl)-2-ethylpyridin-3-yl)piperidin-3-yl)acetic acid], over 5000 nM; in that of `CCc1nc(-c2nnn(C)c2COc2cc(-n3cccn3)ncn2)ccc1N1CCC[C@H](CC(=O)O)C1` [Example 82, (R)-2-(1-(6-(5-(((6-(1H-pyrazol-1-yl)pyrimidin-4-yl)oxy)methyl)-1-methyl-1H-1,2,3-triazol-4-yl)-2-ethylpyridin-3-yl)piperidin-3-yl)acetic acid], under 100 nM.
In the case of `CCc1nc(-c2nnn(C)c2COc2nccc(N3CCCC3)n2)ccc1N1CCC[C@H](CC(=O)O)C1` [Example 83, (R)-2-(1-(2-ethyl-6-(1-methyl-5-(((4-(pyrrolidin-1-yl)pyrimidin-2-yl)oxy)methyl)-1H-1,2,3-triazol-4-yl)pyridin-3-yl)piperidin-3-yl)acetic acid], the half-maximal inhibitory concentration (IC50) is 100 to 500 nM.
In the case of `Cc1nc(-c2nnn(C)c2COc2nccc(C3CCC3)n2)ccc1N1CCC[C@H](CC(=O)O)C1` [Example 84, (R)-2-(1-(6-(5-(((4-cyclobutylpyrimidin-2-yl)oxy)methyl)-1-methyl-1H-1,2,3-triazol-4-yl)-2-methylpyridin-3-yl)piperidin-3-yl)acetic acid], the 50% inhibitory concentration (IC50) was under 100 nM.
In the case of `Cc1nc(-c2nnn(C)c2COc2cc(-n3cccn3)ncn2)ccc1N1CCC[C@H](CC(=O)O)C1` [Example 85, (R)-2-(1-(6-(5-(((6-(1H-pyrazol-1-yl)pyrimidin-4-yl)oxy)methyl)-1-methyl-1H-1,2,3-triazol-4-yl)-2-methylpyridin-3-yl)piperidin-3-yl)acetic acid] it was under 100 nM.
In the case of `Cc1nc(-c2nnn(C)c2COc2nnccc2CC(C)C)ccc1N1C[C@@H](CC(=O)O)CC(F)(F)C1` [Example 86, (S)-2-(5,5-difluoro-1-(6-(5-(((4-isobutylpyridazin-3-yl)oxy)methyl)-1-methyl-1H-1,2,3-triazol-4-yl)-2-methylpyridin-3-yl)piperidin-3-yl)acetic acid] it was 100 to 500 nM; in that of `CCc1nc(-c2cnn(C)c2COc2nccc(C3CCC3)n2)ncc1N1C[C@@H](CC(=O)O)CC(F)(F)C1` [Example 87, (S)-2-(1-(2-(5-(((4-cyclobutylpyrimidin-2-yl)oxy)methyl)-1-methyl-1H-pyrazol-4-yl)-4-ethylpyrimidin-5-yl)-5,5-difluoropiperidin-3-yl)acetic acid], under 100 nM; in that of `CCc1nc(-c2nnn(C)c2COc2nccc(C3CCC3)n2)cc(F)c1N1CCCC(CC(=O)O)C1` (centres unmarked) [Example 88, 2-(1-(6-(5-(((4-cyclobutylpyrimidin-2-yl)oxy)methyl)-1-methyl-1H-1,2,3-triazol-4-yl)-2-ethyl-4-fluoropyridin-3-yl)piperidin-3-yl)acetic acid], 100 to 500 nM.
For the compound `Cc1nc(-c2cnn(C)c2COc2cc(-n3cccn3)ncn2)ccc1N1C[C@@H](CC(=O)O)CC(F)(F)C1` [Example 89, (S)-2-(1-(6-(5-(((6-(1H-pyrazol-1-yl)pyrimidin-4-yl)oxy)methyl)-1-methyl-1H-pyrazol-4-yl)-2-methylpyridin-3-yl)-5,5-difluoropiperidin-3-yl)acetic acid], the IC50 is under 100 nM.
In the case of `CCc1nc(-c2cnn(C)c2COc2cc(-n3cccn3)ncn2)ccc1N1CCC[C@H](CC(=O)O)C1` [Example 90, (R)-2-(1-(6-(5-(((6-(1H-pyrazol-1-yl)pyrimidin-4-yl)oxy)methyl)-1-methyl-1H-pyrazol-4-yl)-2-ethylpyridin-3-yl)piperidin-3-yl)acetic acid] it was under 100 nM; in that of `CCc1nc(-c2nnn(C)c2COc2ncnc(C3CCC3)n2)ccc1N1CCC[C@H](CC(=O)O)C1` [Example 95, (R)-2-(1-(6-(5-(((4-cyclobutyl-1,3,5-triazin-2-yl)oxy)methyl)-1-methyl-1H-1,2,3-triazol-4-yl)-2-ethylpyridin-3-yl)piperidin-3-yl)acetic acid], under 100 nM; in that of `CCc1nc(-c2nnn(C)c2COc2nc(C3CCC3)nc(N3CCOCC3)n2)ccc1N1CCC[C@H](CC(=O)O)C1` [Example 96, (R)-2-(1-(6-(5-(((4-cyclobutyl-6-morpholino-1,3,5-triazin-2-yl)oxy)methyl)-1-methyl-1H-1,2,3-triazol-4-yl)-2-ethylpyridin-3-yl)piperidin-3-yl)acetic acid], 100 to 500 nM.
In the case of `CCc1nc(-c2nnn(C)c2COc2cc(-n3ccnn3)ncn2)ccc1N1CCC[C@H](CC(=O)O)C1` [Example 97, 2-[(3R)-1-{2-ethyl-6-[1-methyl-5-({[6-(1H-1,2,3-triazol-1-yl)pyrimidin-4-yl]oxy}methyl)-1H-1,2,3-triazol-4-yl]pyridin-3-yl}piperidin-3-yl]acetic acid] it was 100 to 500 nM; in that of `CCc1nc(-c2nnn(C)c2COc2cc(-n3nccn3)ncn2)ccc1N1CCC[C@H](CC(=O)O)C1` [Example 98, (R)-2-(1-(6-(5-(((6-(2H-1,2,3-triazol-2-yl)pyrimidin-4-yl)oxy)methyl)-1-methyl-1H-1,2,3-triazol-4-yl)-2-ethylpyridin-3-yl)piperidin-3-yl)acetic acid], 100 to 500 nM; in that of `Cc1nc(-c2nnn(C)c2COc2cc(-n3ccnn3)ncn2)ccc1N1C[C@@H](CC(=O)O)CC(F)(F)C1` [Example 99, (S)-2-(1-(6-(5-(((6-(1H-1,2,3-triazol-1-yl)pyrimidin-4-yl)oxy)methyl)-1-methyl-1H-1,2,3-triazol-4-yl)-2-methylpyridin-3-yl)-5,5-difluoropiperidin-3-yl)acetic acid], under 100 nM.
`CCc1nc(-c2nnn(C)c2COc2nccc(-n3cccn3)n2)ccc1N1CCC[C@H](CC(=O)O)C1` [Example 101, (R)-2-(1-(6-(5-(((4-(1H-pyrazol-1-yl)pyrimidin-2-yl)oxy)methyl)-1-methyl-1H-1,2,3-triazol-4-yl)-2-ethylpyridin-3-yl)piperidin-3-yl)acetic acid]: the half-maximal inhibitory concentration (IC50) is under 100 nM.
In the case of `Cc1nc(-c2nnn(C)c2COc2nccc(-n3cccn3)n2)ccc1N1CCC[C@H](CC(=O)O)C1` [Example 102, (R)-2-(1-(6-(5-(((4-(1H-pyrazol-1-yl)pyrimidin-2-yl)oxy)methyl)-1-methyl-1H-1,2,3-triazol-4-yl)-2-methylpyridin-3-yl)piperidin-3-yl)acetic acid] it was under 100 nM.
